Measured values published in patent publication US20260158043A1, “STEROID AS A MODULATOR OF GABAA RECEPTOR” (UMECRINE COGNITION AB, priority 2021, published 2026).
pEC50, pIC50: −log10 of the molar value. “And” between values parts separate entries of the source, which are not always exact repeats. Equal entries are not always repeated. “Also recorded” adds a separate entry of the source.

Legend:
[1] = molecular target: T1, human α1β2γ2L GABAA receptor (Homo sapiens, UniProt P14867+P18507+P47870); test: Patch-clamp (Dynaflow) of GABA-mediated current in HEK-293 cells expressing α1β2γ2L GABAA receptor; format: cell-based
T1 construct: expressed in transfected cells
Text: (§1) Aim: To investigate the effect of 3α-ethynyl-3β-hydroxy-5α-androstan-17-one on the GABAA receptor function both in absence and in presence of the GAMS tetrahydrodeoxycorticosterone (THDOC) by the Dynaflow™ system (Fluicell) on HEK-293 cells recombinantly expressing human α1β2γ2L GABAA receptor or human α3β3γ2 GABAA receptor subtype. In these tests the protocol was optimized to be similar to the physiological conditions in the synaptic cleft.
(§2) Preparation of cell lines: Cell lines permanently expressing a functional human GABAA receptor was made as follows. The GABAA receptor subunits α1β2γ2L or α3β3γ2 including introduced Kozac sequences just before the start codons were subcloned into mammalian expression vectors comprising Geneticin, Hygromycin B, and Zeocin resistance, respectively. A HEK-293 cell line stably expressing the three GABAA receptor subunits (α1β2γ2L, α3β3γ2) separately for α1β2γ2L and α3β3γ2 subunit composition was produced by transfection of the subunits one at a time. The transfection was followed by selection with the appropriate antibiotics, cell separation with the use of subunit specific antibodies (β2 and γ2, Abcam, Upstate/Chemicon/Milipore, Sigma Aldrich), and production of single cell colonies. Produced cell lines were analysed with immunocytochemistry for the three GABAA receptor subunits, followed by selection of a suitable cell line showing for the GABAA receptor normal and good reactivity towards GABA and THDOC.
(§3) HEK-293 cells (obtained from Pasteur Institute, Paris, France), permanently transfected with the human 1β2γ2L or α3β3γ2 GABAA receptor subtypes, were seeded at a density of 3×10^4/25 cm^2 in a culture flask. The transfected cells were used for patch-clamp experiments 3 days after seeding. When using the cells for patch-clamp experiments the cells were washed twice with oxygen-bubbled EC-solution (see below). About 5 mL EC was then added and the cells were kept in the incubator for about 15 minutes. After 15 minutes the cells came loose from the bottom of the flask and were separated by carefully sucking a couple of times with a Pasteur pipette.
(§4) Dynaflow™ system with Resolve chips (Fluicell) was used for all patch-clamp experiments. The DF-16 Proll chips (Fluicell) used have non-sticky inserts for the wells. The channel width was 150 μm and the height 50 μm. The well volume was 280 μL. Run time at the […] is […]. The pump settings were as follow: Omnifix 2 mL syringe with inner diameter of 9.65 mm was used. The syringe pump flow rate for DF-16 Pro II chip was 26 μL/min.
Steroids and GABA: GABA (Sigma Aldrich) was dissolved in EC-solution by ultrasound for about 40 minutes to the concentration of 10 mM in room temperature. All steroids were dissolved to the concentration of 6 mM in DMSO. […]

[2] = molecular target: T2, human α4β3δ GABAA receptor (Homo sapiens, UniProt O14764+P28472+P48169); test: Patch-clamp (Dynaflow) of GABA-mediated current at α4β3δ GABAA receptor; format: cell-based; details: agonist effect
T2 construct: expressed in transfected cells
Text: (§5) Aim: the aim of this project was to study the effect of 3α-ethynyl-3β-hydroxy-5α-androstan-17-one and the positive GABAA receptor modulator THDOC on GABA-mediated current response, at human α1β2γ2L, α2β3γ2S, α4β3δ and α5β3γ2L subunit GABAA receptors.
(§6) Study design: The current response mediated by chloride ion flux through the GABAA receptors expressing the α1β2γ2L, α2β3γ2S, α3β3γ2L, α4β3δ and α5β3γ2L subunit was studied with the use of patch clamp technique combined with the Dynaflow™ application system and the Resolve chip. This provides rapid applications of and removal of substances. The material, protocol and methods were identical to the ones used in Examples 1 and 2. 1 μM 3α-ethynyl-3β-hydroxy-5α-androstan-17-one was studied on GABA mediated current response at α1β2γ2L, α2β3γ2S, α4β3δ and α5β3γ2L GABAA receptor subtypes (FIG. 4, Table 6). In addition, the effect of 1-1000 nM THDOC was studied on GABA mediated current response at the α1β2γ2L, α3β2γ2, and α5β3γ2L receptor subtypes (Table 8). The binding site of THDOC is in the […] region of the receptor. To achieve stable response, the cells were exposed to steroid (THDOC) in 20 seconds before GABA application.
(§7) The amount GABA used depends on the receptor subtype intra or extra-synaptic type, α1β2γ2L=30 μM; α2β3γ2S=45 μM; α4β3δ=1 μM and α5β3γ2L=0.3 μM GABA.

[3] = molecular target: T3, human α5β3γ2L GABAA receptor (Homo sapiens, UniProt P18507+P28472+P31644); test: Patch-clamp (Dynaflow) of GABA-mediated current at α5β3γ2L GABAA receptor; format: cell-based
T3 construct: expressed in transfected cells
Text: as §5, §6, §7
(§8) THDOC: The following standard protocol was used for the different receptor subtypes: • α1β2γ2L: 20 s preincubation of 30-1000 nM THDOC 40 ms application of 30 μM GABA±steroids. • α3β2γ2: 20 s preincubation of 1-1000 nM THDOC followed by 1 s application of 100 μM GABA±steroids. • α5β3γ2L: 20 s preincubation of 30-1000 nM THDOC followed by 6 s application of 0.3 μM GABA±steroids.

[4] = molecular target: α3β2γ2 GABAA receptor subtype (Homo sapiens, UniProt P28472+P34903); test: Patch-clamp (Dynaflow), THDOC on GABA-mediated current at α3β2γ2 receptor subtype; format: cell-based; details: 1-1000 nM THDOC 20 s preincubation, 100 μM GABA 1 s, read-out: Emax for effect on GABA mediated current response
Protocol: as §6, §8

[5] = molecular target: T4, human α3β3γ2 GABAA receptor subtype (Homo sapiens, UniProt P18507+P28472+P34903); test: Patch-clamp (Dynaflow) of GABA-mediated current in HEK-293 cells expressing α3β3γ2L GABAA receptor; format: cell-based
T4 construct: expressed in transfected cells
Text: as §1, §2, §3, §4
Steroids and GABA: GABA (Sigma Aldrich) was dissolved in EC-solution by ultrasound for about 40 minutes to the concentration of 10 mM in room temperature. All steroids were dissolved to the concentration of 6 mM in DMSO. The DMSO concentration was 0.1% in all end-solutions, including the wash solution (EC) and the solution with GABA alone. End-solutions are the solutions added into the wells of the chip.
Electrophysioloqy: Patch electrodes were pulled from 1.5 mm O.D., 0.86 mm I.D. borosilicate capillary glass without filament. […] The intracellular solution consisted of (in mM): 140 Cs-gluconate, 3.0 NaCl, 1.2 MgCl2, 1.0 EGTA, 10 HEPES. pH was adjusted to 7.2 with CsOH. The extracellular (EC) solution used during recordings contained (in mM): 137 NaCl, 5.0 KCl, 1.0 CaCl2), 1.2 MgCl2, 10 HEPES, 10 glucose. pH was adjusted with NaOH to 7.4. All chemicals in the intracellular and extracellular solutions were obtained from Sigma-Aldrich. After compensating for the liquid junction potential, a steady holding potential of −17 mV was used in all experiments. In physiological conditions the HEK-293 has a resting potential at −40 mV and a low concentration of chloride ions inside the cell. By using the holding potential of −17 mV and the intracellular solution with low chloride ion concentration the chloride ions flux into the cell when the receptors are activated. […]

[6] = Weight increase in growing male rats, experiment 2 (10 days s.c., with progesterone + estradiol); format: in vivo, Male Wistar rats; details: for Weight difference compared to vehicle (Mean±SE) / Weight difference versus E+P control rats (Mean±SE): 10 days, n=9
Protocol: Animals: Male Wistar rats were kept in group cages, with three animals per cage, from delivery and throughout the period of experiments. The individual animals were marked so that they could be identified throughout the experiment duration. The animals weight an average of 152 g upon arrival. A reversed light dark (12:12 h) cycle was used with the dark period onset at 0600 hrs. Altogether fifty-six (56) rats were used in this study (experiment 1+2). The animals were delivered from the breeder Taconic (Denmark). The study protocol was approved by the Regional Ethics Committee of Umea University, Sweden.
Feeding: Standard chow and water were available ad libitum. A reversed 12-h dark-light cycle with lights off at 10.00 am and lights on at 22.00 pm was used. For identification, the rats were marked with a permanent marker on the tail. To avoid the endogenous allopregnanolone fluctuations that are present in the oestrous cycle of female rats, male rats were chosen (Frye et al. 2000). The animals were allowed to acclimatize for at least 3 weeks before start of the experimental sessions. During this period, the rats were repeatedly handled and allowed habituation to the new environment and to all new procedures, to minimize stress during the experiments.
After 14 days of triad housing, handling and injection training of the animals, the animals were treated for 5 days with IV injections in experiment 1 and 10 days with a daily subcutaneous injection of the assigned treatment in experiment 2 (Table 3 and 4). The injections were given at 08.00 every morning. The animals were weighed the day before onset of the treatment and at the last day of injection i.e. on the 5th or 10th day of treatment. Weight was taken at the time of the last injection. […] The results are shown in FIG. 2 (experiment 1) and FIG. 3 (experiment 2), respectively.

[7] = tested on: GABAA receptor; details: taught in WO 09/142594, table 3; cited from earlier work
[8] = 1 mg/kg s.c. + 5 mg/kg progesterone + 10 μg/kg 17β-estradiol
[9] = 5 mg/kg s.c. + 5 mg/kg progesterone + 10 μg/kg 17β-estradiol

T1 sequence (P14867 28-456): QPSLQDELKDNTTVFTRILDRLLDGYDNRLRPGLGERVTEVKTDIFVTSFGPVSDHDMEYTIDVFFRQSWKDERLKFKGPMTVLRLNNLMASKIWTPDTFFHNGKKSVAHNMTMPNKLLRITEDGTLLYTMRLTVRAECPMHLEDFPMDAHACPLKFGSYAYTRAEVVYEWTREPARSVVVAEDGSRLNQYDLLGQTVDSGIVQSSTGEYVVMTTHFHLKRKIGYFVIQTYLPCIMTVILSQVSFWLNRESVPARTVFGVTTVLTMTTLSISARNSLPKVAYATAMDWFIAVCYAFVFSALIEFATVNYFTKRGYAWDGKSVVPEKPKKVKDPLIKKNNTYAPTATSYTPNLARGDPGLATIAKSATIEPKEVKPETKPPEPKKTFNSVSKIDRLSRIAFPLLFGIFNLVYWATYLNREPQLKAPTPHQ
T1 sequence (P47870 25-512 limits assumed): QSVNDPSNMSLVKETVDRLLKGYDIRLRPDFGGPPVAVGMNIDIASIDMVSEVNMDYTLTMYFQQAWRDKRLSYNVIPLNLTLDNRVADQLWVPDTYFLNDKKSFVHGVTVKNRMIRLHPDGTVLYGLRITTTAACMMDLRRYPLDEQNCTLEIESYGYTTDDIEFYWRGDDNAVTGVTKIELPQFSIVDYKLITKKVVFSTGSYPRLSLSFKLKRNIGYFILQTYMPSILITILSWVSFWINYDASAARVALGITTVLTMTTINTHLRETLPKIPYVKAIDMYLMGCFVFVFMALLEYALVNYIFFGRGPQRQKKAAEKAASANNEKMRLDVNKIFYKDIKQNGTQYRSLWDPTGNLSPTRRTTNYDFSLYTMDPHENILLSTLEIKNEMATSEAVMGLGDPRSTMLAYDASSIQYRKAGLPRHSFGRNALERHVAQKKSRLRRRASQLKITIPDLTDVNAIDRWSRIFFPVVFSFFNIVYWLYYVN
T1 sequence (P18507 40-475): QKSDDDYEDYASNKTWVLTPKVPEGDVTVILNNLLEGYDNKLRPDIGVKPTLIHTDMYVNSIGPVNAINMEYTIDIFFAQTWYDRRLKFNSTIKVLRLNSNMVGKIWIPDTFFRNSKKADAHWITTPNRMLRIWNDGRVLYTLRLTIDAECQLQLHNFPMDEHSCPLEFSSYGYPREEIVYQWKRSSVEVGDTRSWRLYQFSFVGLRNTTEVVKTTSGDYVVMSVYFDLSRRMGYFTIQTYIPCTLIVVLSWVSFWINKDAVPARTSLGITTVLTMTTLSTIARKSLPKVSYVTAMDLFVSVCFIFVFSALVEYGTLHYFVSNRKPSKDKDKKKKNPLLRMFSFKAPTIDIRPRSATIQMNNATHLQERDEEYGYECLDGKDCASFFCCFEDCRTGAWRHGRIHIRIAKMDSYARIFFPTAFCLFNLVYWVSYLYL
T4 sequence (P34903 29-492): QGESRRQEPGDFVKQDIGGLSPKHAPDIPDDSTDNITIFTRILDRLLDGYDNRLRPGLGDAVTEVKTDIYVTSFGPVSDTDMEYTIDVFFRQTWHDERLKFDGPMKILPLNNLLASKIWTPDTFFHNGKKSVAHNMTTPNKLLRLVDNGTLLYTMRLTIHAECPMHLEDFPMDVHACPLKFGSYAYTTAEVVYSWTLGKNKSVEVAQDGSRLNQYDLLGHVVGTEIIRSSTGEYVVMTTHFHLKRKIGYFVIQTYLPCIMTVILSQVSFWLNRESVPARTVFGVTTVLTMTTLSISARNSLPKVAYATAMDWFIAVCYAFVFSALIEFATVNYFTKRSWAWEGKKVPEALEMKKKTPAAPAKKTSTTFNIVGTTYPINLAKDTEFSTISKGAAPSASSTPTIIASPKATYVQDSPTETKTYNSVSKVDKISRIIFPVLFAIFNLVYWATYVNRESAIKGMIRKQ
T4 sequence (P28472 26-473): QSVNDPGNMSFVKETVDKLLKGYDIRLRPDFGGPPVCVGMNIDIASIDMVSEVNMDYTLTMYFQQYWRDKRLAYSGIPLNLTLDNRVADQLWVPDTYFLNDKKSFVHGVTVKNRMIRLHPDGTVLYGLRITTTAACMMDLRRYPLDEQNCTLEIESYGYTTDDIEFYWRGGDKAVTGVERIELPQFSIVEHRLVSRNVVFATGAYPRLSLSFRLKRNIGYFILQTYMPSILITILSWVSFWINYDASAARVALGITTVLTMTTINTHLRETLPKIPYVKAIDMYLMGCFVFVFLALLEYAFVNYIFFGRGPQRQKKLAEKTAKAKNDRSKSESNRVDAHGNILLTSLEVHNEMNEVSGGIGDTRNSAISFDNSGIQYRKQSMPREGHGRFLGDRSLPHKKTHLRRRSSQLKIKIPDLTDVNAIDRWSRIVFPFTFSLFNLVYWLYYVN
T4 sequence (P18507 40-475): as the sequence (P18507 40-475) above
T3 sequence (P31644 32-462): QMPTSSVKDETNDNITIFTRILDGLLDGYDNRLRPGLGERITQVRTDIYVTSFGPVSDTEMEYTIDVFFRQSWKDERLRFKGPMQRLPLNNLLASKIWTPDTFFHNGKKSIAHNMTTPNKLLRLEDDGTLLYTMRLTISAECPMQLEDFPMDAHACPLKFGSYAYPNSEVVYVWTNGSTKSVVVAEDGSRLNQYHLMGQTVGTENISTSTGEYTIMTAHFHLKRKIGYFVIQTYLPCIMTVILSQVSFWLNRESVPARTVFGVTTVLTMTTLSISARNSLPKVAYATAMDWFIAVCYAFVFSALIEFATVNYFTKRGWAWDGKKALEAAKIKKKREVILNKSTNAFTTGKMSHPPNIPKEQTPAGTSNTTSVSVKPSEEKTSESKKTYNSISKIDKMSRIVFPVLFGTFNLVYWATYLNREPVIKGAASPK
T3 sequence (P28472 26-473): as the sequence (P28472 26-473) above
T3 sequence (P18507 40-475): as the sequence (P18507 40-475) above
Chain of α3β2γ2 GABAA receptor subtype (P34903 29-492): as the sequence (P34903 29-492) above
Chain of α3β2γ2 GABAA receptor subtype (P28472 26-473): as the sequence (P28472 26-473) above
Chain of α3β2γ2 GABAA receptor subtype (P18507 40-475 partner): as the sequence (P18507 40-475) above
T2 sequence (P48169 36-554): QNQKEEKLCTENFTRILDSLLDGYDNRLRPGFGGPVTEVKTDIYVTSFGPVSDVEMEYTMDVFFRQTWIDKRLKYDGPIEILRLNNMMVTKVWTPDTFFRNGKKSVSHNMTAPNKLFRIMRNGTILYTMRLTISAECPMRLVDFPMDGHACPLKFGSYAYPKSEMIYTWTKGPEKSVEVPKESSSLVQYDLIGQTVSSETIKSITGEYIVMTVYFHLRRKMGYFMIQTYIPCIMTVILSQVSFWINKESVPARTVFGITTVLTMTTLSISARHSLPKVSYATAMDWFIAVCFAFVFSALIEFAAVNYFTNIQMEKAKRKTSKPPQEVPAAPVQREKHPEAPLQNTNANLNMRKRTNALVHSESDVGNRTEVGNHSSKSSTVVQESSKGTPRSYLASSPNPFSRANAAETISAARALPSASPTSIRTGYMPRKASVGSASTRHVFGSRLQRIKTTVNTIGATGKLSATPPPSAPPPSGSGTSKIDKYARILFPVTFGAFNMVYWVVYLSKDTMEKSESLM
T2 sequence (P28472 26-473): as the sequence (P28472 26-473) above
T2 sequence (O14764 17-452 limits assumed): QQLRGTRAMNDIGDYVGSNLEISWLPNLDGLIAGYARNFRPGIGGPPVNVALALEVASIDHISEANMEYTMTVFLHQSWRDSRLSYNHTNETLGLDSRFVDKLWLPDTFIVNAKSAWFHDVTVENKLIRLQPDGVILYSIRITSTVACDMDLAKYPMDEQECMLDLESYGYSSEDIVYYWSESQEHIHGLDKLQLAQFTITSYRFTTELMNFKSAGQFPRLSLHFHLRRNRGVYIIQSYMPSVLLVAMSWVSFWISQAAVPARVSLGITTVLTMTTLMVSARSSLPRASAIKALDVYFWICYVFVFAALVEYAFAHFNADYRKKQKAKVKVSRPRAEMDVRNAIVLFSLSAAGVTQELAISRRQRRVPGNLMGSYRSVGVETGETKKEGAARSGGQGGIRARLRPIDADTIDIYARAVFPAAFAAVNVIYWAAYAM

For `C[C@]12CC[C@@H](O)C[C@@H]1CC[C@@H]1[C@@H]2CC[C@]2(C)[C@@H](C(=O)CO)CC[C@@H]12` [THDOC, 3α, 21-dihydroxy-5α-pregnan-20-one], the Emax ([1]; HEK293, α1β2γ2L, 30-1000 nM THDOC 20 s preincubation, 30 μM GABA 40 ms, read-out: Emax for effect on GABA mediated current response) was 115%, the “Effect on GABA-mediated current at α1β2γ2L (in words)” value ([1]; agonist effect) was “significantly enhances” and the pEC50 ([1]; α1β2γ2L, 30-1000 nM THDOC 20 s preincubation, 30 μM GABA 40 ms, read-out: EC50 for effect on GABA mediated current response) was 7.15. The “Effect on GABA-mediated current at α4β3δ (in words)” value [2] was “significantly enhances”, the “Effect on GABA-mediated current at α5β3γ2L (in words)” value ([3]; agonist effect) was “significantly enhances” and the pEC50 ([3]; α5β3γ2L, 30-1000 nM THDOC 20 s preincubation, 0.3 μM GABA 6 s, read-out: EC50 for effect on GABA mediated current response) was 7.17. For the same compound, the Emax ([3]; α5β3γ2L, 30-1000 nM THDOC 20 s preincubation, 0.3 μM GABA 6 s, read-out: Emax for effect on GABA mediated current response) was 131% and the Emax [4] was 80%.

In the case of `C#C[C@]1(O)CC[C@@]2(C)[C@@H](CC[C@@H]3[C@@H]2CC[C@]2(C)C(=O)CC[C@@H]32)C1` [3α-ethynyl-3β-hydroxy-5α-androstan-17-one], the “Effect on 100 μM GABA-mediated current response, Mean ± SEM %” value (from here on “Effect … Mean ± SEM %”) ([5]; 0.003 μM compound + 100 μM GABA, α3β3γ2L) was “+2.5 ± 2.9%”, the “Own effect, Baseline shift” value ([5]; 0.003 μM compound, absence of GABA, α3β3γ2L) was −1.0 ± 0.4 pA and the “Effect … Mean ± SEM %” value ([5]; 0.01 μM compound + 100 μM GABA, α3β3γ2L) was −3.0 ± 2.3%. The “Own effect, Baseline shift” value ([5]; 0.01 μM compound, absence of GABA, α3β3γ2L) was −0.7 ± 0.7 pA, the “Effect … Mean ± SEM %” value ([5]; 0.03 μM compound + 100 μM GABA, α3β3γ2L) was −2.0 ± 1.0% and the “Own effect, Baseline shift” value ([5]; 0.03 μM compound, absence of GABA, α3β3γ2L) was −0.8 ± 1.2 pA. For the same compound, the “Effect … Mean ± SEM %” value ([5]; 0.1 μM compound + 100 μM GABA, α3β3γ2L) was −4.0 ± 3.0%, the “Own effect, Baseline shift” value ([5]; 0.1 μM compound, absence of GABA, α3β3γ2L) was −1.0 ± 0.8 pA and the “Effect … Mean ± SEM %” value ([5]; 0.3 μM compound + 100 μM GABA, α3β3γ2L) was −10% and −10 ± 2.3%. For the same compound, the “Own effect, Baseline shift” value ([5]; 0.3 μM compound, absence of GABA, α3β3γ2L) was “+0.9 ± 0.5 pA”, the “Own effect, Baseline shift” value ([5]; 1 μM compound, absence of GABA, α3β3γ2L) was −1.2 ± 0.5 pA and the “Effect … Mean ± SEM %” value ([5]; 3 μM compound + 100 μM GABA, α3β3γ2L) was −74 ± 0.9%. For the same compound, the “Own effect, Baseline shift” value ([5]; 3 μM compound, absence of GABA, α3β3γ2L) was −0.4 ± 0.4 pA, the “Effect … Mean ± SEM %” value ([5]; 10 μM compound + 100 μM GABA, α3β3γ2L) was −76 ± 1.9% and the “Own effect, Baseline shift” value ([5]; 10 μM compound, absence of GABA, α3β3γ2L) was “+1.1 + 2.4 pA”. The “Activation of the α3β3γ2L GABAA receptor in absence of GABA” value ([5]; 0.003-10 μM, absence of GABA) was “do not activate”, the “Imax on 100 μM GABA-mediated current response” value ([5]; 0.003-10 μM, best fit curve, α3β3γ2L) was −78% and the pIC50 ([5]; 0.003-10 μM, best fit curve, α3β3γ2L, read-out: IC50 on 100 μM GABA-mediated current response) was 6.10. The “Antagonism of 100 nM THDOC-enhancement at α1β2γ2” value ([1]; 1 μM compound + THDOC + GABA) was “no significant agonistic or antagonistic effect; also recorded: No effect”, the “Weight difference compared to vehicle (Mean±SE)” value [6, 8] was -33 ± 4.4 g and the “Weight difference versus E+P control rats (Mean±SE)” value [6, 8] was -23.9 ± 4.4 g. The “Weight difference compared to vehicle (Mean±SE)” value [6, 9] was -29.6 ± 5.2 g, the “Weight difference versus E+P control rats (Mean±SE)” value [6, 9] was -20.4 ± 5.2 g and the “Difference in weight after 10 days of treatment compared to vehicle” value ([6]; s.c., 10 days of treatment) was “over 20%”. The “Effect as a GAMSA or GAMS” value [7] was “no effect”.
